# Measurements published in US5110935A, “New compounds which are active against the tissue forms of malaria and method of preparation” (Ire-Celltarg, S.A., priority 1988, dated 1992).
# Values joined by “and” are separate entries in the source; they are usually repeats but may differ in a detail not shown here. Identical values can stand only once. “Also recorded” adds a separate entry of the source. Like-named read-outs stand apart in the source and are kept apart here.
# How the values were obtained:
# [1] = Stability at room temperature; format: physicochemical; settings: for Stability at room temp. under inert atmosphere: argon
# [2] = Stability in the presence of fetal calf serum; format: in vitro ADME
# Protocol: The influence of serum on the stability of primaquine (PQ) and its derivatives is determined by incubating these compounds at 37° C. at a concentration of 100 μg/ml in 95% fetal calf serum (FCS, Flow Laboratories) or human serum and phosphate-buffered saline (0.15 M PBSA, pH 7.2) as a control. All the solutions are sterilized by filtration on a Millipore filter (Millex GV) of porosity 0.20 μm.
# At interval of time, 1-ml samples are withdrawn and the serum proteins are then extracted from them by precipitation with acetonitrile. For this purpose, an identical volume of acetonitrile is added to each sample. After vigorous mixing in a Vortex mixer, the samples are left for 1 hour at 4° C. and protected from light and then centrifuged for 5 minutes at 12,000 g. The supernatants are collected and then analyzed by HPLC (20- to 50-μl aliquot) under the standard conditions.
# The results for the stability of primaquine and its two derivatives in the presence of fetal calf serum are recorded in Table 1; the results are expressed as a % of the initial concentration (time 0) after extraction.
# ^a : The compounds are incubated at 37° C. in the presence of
# fetal calf serum (95% final) and then analyzed by spectrophotometry after
# (§1) ^b : The results represent the relative concentration of primaquine
# (PQ) and of derivatives (PQX) in terms of the incubation time, expressed
# as a percentage of the initial concentration (time 0) after extraction
# lysosomal enzymes = experiment: Hydrolysis in the presence of lysosomal enzymes; format: in vitro ADME, rat; settings: for Relative concentration of primaquine (PQ) from derivative: pH 4.5, 0 h; for Relative concentration of compound (% of initial concentration): pH 4.5, 37° C., 0 h
# Protocol: (§2) The compounds, at a final concentration of 15 μg/ml, are incubated in 50 mM acetate buffer, pH 4.5, at 37° C. in the presence of 5 mM cysteine and a lysosomal enzyme fraction (0.15 mg protein/ml) purified from rat liver.
# (§3) The purified lysosomal fraction is prepared according to the method described by Trouet (1974, Meth. Enzymol., 31, 323-334).
# (§4) At intervals of time, corresponding samples are taken from the incubation. The enzyme reaction is stopped by adding 10 μl of 10M HCl per ml of sample. A volume of 20 μl is withdrawn and analyzed directly by HPLC under the standard conditions.
# (§5) ^a : The compounds are incubated at pH 4.5 in the presence of
# (§6) lysosomal enzymes (0.15 mg protein/ml) and 5 mM cysteine, and then
# (§7) analyzed by spectrophotometry after HPLC. The initial purity of the
# as §1
# (§8) (PQ) and derivatives (PQX) in terms of the incubation time, expressed as
# (§9) percentage of the initial concentration (time 0) after extraction.
# [3] = Hydrolysis in the presence of lysosomal enzymes; format: in vitro ADME, rat; settings: rat; for metabolised at 1 h: pH 4.5, 1 h; for metabolised at 2 h: pH 4.5, 2 h; for metabolised at 3 h: pH 4.5, 3 h; for metabolised at 6 h: pH 4.5, 6 h; for metabolised at 24 h: pH 4.5, 24 h
# Protocol: as §2, §3, §4, §5, §6, §7, §1, §8, §9
# Plasmodium berghei = experiment: Therapeutic index in mice; format: in vivo, P. berghei; settings: i.v.; for Therapeutic index, fold higher than that of PQ: mice; for Therapeutic index (TI): ratio of LD50 to CPD50, mice
# Excerpt: The therapeutic index is defined as the ratio of the toxicity, expressed as LD50, to the therapeutic activity, expressed as CPD50, in mice.
# ^b : The therapeutic index (TI) is the ratio of LD50 to […]
# human erythrocytes = settings: for Concentration combined with erythrocytes (% initial concentration): human red cells 10^9/ml, 100 μg/ml
# Protocol: Fresh human blood (A+) on CPDA is washed twice in RPMI medium containing 20 mM glucose at pH 7.4, and then resuspended in the same medium at 37° C. to obtain a 20% suspension of red cells (2×10^9 erythrocytes/ml). To 1 ml of this suspension, 1 ml of a solution of PQ or derivatives at a concentration of 0.250 mM in the same medium at 37° C. is added.
# After different incubation times at 37° C., 0.5 ml of sample is withdrawn and then transferred to an Eppendorf tube containing 0.4 ml of silicone oil (Merck, density 1.06 g/ml).
# After centrifugation for 30 seconds at 12,000 g, the supernatant and the silicone oil are removed, while the cells in the pellet are lyzed by adding 0.5 ml of water. The quinoline compound present in combination with the cell lysate is then extracted by precipitation of the cell proteins with acetonitrile (0.5 ml) and thereafter analyzed by HPLC under the standard conditions.
# The intracellular concentration of quinoline derivative is obtained by subtracting the concentration of compound present in the extracellular medium from the total concentration in the cell lysate. The contaminating extracellular volume is measured using tritiated inulin.
# human red cells = experiment: Hemolytic effect on human red cells; format: cell-based
# Protocol: Two important toxic effects of PQ were assessed on the two derivatives: the hemolytic effect and the conversion of hemoglobin to methemoglobin.
# A+ blood is washed twice in 0.15M phosphatebuffered saline at pH 7.4 containing 20 mM glucose (GPBS), and then resuspended at a concentration of 50% in the same buffer. To this suspension, an equal volume of compound dissolved in GPBS at different concentrations (test), or of GPBS (control) is added. The final hematocrit of the suspension is 25%. After 60 minutes' incubation at 37° C., the concentration of hemoglobin and methemoglobin is determined on the total suspension, and the concentration of hemoglobin present in the supernatant after centrifugation (extracellular hemoglobin) is determined, by the cyanmethemoglobin and benzidine methods (Fairbanks V.F., 1976, in "Fundamentals of Clinical Chemistry, M.W. Tietz Editors, Saunders").
# [4] = test system: persistent tissue forms of P. vivax and P. ovale; settings: persistent tissue forms of P. vivax and P. ovale in man; cited from earlier work
# man = settings: human, in vivo, cited from earlier work
# [5] = bovine, fetal calf serum 95%, 37° C., 1 h, read-out: Relative concentration of compound (% of initial concentration)
# [6] = bovine, fetal calf serum 95%, 37° C., 1 h, read-out: Relative concentration of primaquine (PQ) from derivative
# [7] = bovine, fetal calf serum 95%, 37° C., 2 h, read-out: Relative concentration of compound (% of initial concentration)
# [8] = bovine, fetal calf serum 95%, 37° C., 2 h, read-out: Relative concentration of primaquine (PQ) from derivative
# [9] = bovine, fetal calf serum 95%, 37° C., 3 h, read-out: Relative concentration of compound (% of initial concentration)
# [10] = bovine, fetal calf serum 95%, 37° C., 3 h, read-out: Relative concentration of primaquine (PQ) from derivative
# [11] = bovine, fetal calf serum 95%, 37° C., 6 h, read-out: Relative concentration of compound (% of initial concentration)
# [12] = bovine, fetal calf serum 95%, 37° C., 6 h, read-out: Relative concentration of primaquine (PQ) from derivative
# [13] = bovine, fetal calf serum 95%, 37° C., 24 h, read-out: Relative concentration of compound (% of initial concentration)
# [14] = bovine, fetal calf serum 95%, 37° C., 24 h, read-out: Relative concentration of primaquine (PQ) from derivative
# [15] = fetal calf serum 95%, 37° C., 0 h
# [16] = liver lysosomal enzyme fraction, read-out: Relative concentration of primaquine (PQ) from derivative
# [17] = liver lysosomal enzymes, pH 4.5, 37° C., read-out: Relative concentration of compound (% of initial concentration)
structure (smiles),measurement,setting,value
"COc1cc(NC(C)CCCNC(=O)CC[C@H](N)C(=O)O)c2ncccc2c1 (stereo partly drawn) [gGLU-PQ, N-(γ-L-glutamyl)primaquine]",Stability at room temp. and in the air,[1],unstable
same,Stability at room temp. under inert atmosphere,[1],stable
same,remaining at 1 h,[2]; [5],96%
same,metabolised at 1 h,[2]; [6],3%
same,remaining at 2 h,[2]; [7],95%
same,metabolised at 2 h,[2]; [8],4%
same,remaining at 3 h,[2]; [9],94%
same,metabolised at 3 h,[2]; [10],4%
same,remaining at 6 h,[2]; [11],83%
same,metabolised at 6 h,[2]; [12],4%
same,remaining at 24 h,[2]; [13],51%
same,metabolised at 24 h,[2]; [14],4%
same,Duration of stability in serum,[2]; fetal calf serum,at least 3 hours
same,Relative concentration of compound (% of initial concentration),[2]; [15],98 (1) %
same,Relative concentration of primaquine (PQ) from derivative,[2]; [15],2 (1) %
same,Stability in the presence of serum,[2]; 37° C.,a gradual decrease in the relative concentration is observed after 6 hours' incubation
same,Relative concentration of primaquine (PQ) from derivative,lysosomal enzymes,0%
same,Relative concentration of compound (% of initial concentration),lysosomal enzymes,100%
same,metabolised at 1 h,[3]; [16],0%
same,metabolised at 2 h,[3]; [16],0%
same,metabolised at 3 h,[3]; [16],0%
same,metabolised at 6 h,[3]; [16],0%
same,metabolised at 24 h,[3]; [16],0%
same,remaining at 1 h,[3]; [17],104%
same,remaining at 2 h,[3]; [17],95%
same,remaining at 3 h,[3]; [17],98%
same,remaining at 6 h,[3]; [17],101%
same,remaining at 24 h,[3]; [17],105%
same,"Therapeutic index, fold higher than that of PQ",Plasmodium berghei,at least 11 -fold
same,Therapeutic index (TI),Plasmodium berghei,> 19 and 19.4
same,Accumulation in erythrocytes,human erythrocytes; not told,not accumulated in erythrocytes
"COc1cc(NC(C)CCCN)c2ncccc2c1 (centres unmarked) [Primaquine, 6-methoxy-8-(4-amino-1-methylbutylamino)quinoline, reference compound]",remaining at 1 h,"[2]; bovine, fetal calf serum, fetal calf serum 95%, 37° C., 1 h, read-out: Relative concentration of compound (% of initial concentration)",98%
same,remaining at 2 h,"[2]; bovine, fetal calf serum, fetal calf serum 95%, 37° C., 2 h, read-out: Relative concentration of compound (% of initial concentration)",87%
same,remaining at 3 h,"[2]; bovine, fetal calf serum, fetal calf serum 95%, 37° C., 3 h, read-out: Relative concentration of compound (% of initial concentration)",77%
same,remaining at 6 h,"[2]; bovine, fetal calf serum, fetal calf serum 95%, 37° C., 6 h, read-out: Relative concentration of compound (% of initial concentration)",34%
same,Relative concentration of compound (% of initial concentration),[2]; [15],100%
same,Second HPLC peak (Y) from primaquine,[2]; [15],0%
same,Second HPLC peak (Y) from primaquine,"[2]; fetal calf serum 95%, 37° C., 1 h",0%
same,Second HPLC peak (Y) from primaquine,"[2]; fetal calf serum 95%, 37° C., 2 h",5%
same,Second HPLC peak (Y) from primaquine,"[2]; fetal calf serum 95%, 37° C., 3 h",10%
same,Second HPLC peak (Y) from primaquine,"[2]; fetal calf serum 95%, 37° C., 6 h",11%
same,Second HPLC peak (Y) from primaquine,"[2]; fetal calf serum 95%, 37° C., 24 h",5%
same,Relative concentration of compound (% of initial concentration),"[2]; fetal calf serum 95%, 37° C., 24 h, 1440 min",2%
same,Relative concentration of compound (% of initial concentration),"[2]; fetal calf serum 95%, 37° C., 24 h, listed as primaquine, 1440 min",7%
same,"Second peak (Y), maximum","[2]; fetal calf serum, after 2 hours' incubation",≤ 10%
same,Stability in the presence of serum,[2]; 37° C.,unstable
same,Hemolytic effect,human red cells,concentration-dependent hemolytic effect
same,Hemolysis (% of total hemoglobin concentration),"human red cells; 10 mM, 1 hour, 37° C., 60 min, 10000 µM",4.7 (1.7) %
same,Relative concentration of compound (% of initial concentration),lysosomal enzymes,100%
same,remaining at 1 h,[3]; [17],94%
same,remaining at 2 h,[3]; [17],96%
same,remaining at 3 h,[3]; [17],84%
same,remaining at 6 h,[3]; [17],87%
same,remaining at 24 h,[3]; [17],68%
same,Clinical effectiveness,[4],clinically effective
same,Toxic effects (words),man,"destabilizes the red cell membrane, inducing a hemolysis"
same,Toxic effects (words),man; listed as primaquine,hemolysis; also recorded: Methemoglobinuria and gastrointestinal disorders as well as certain effects on the central nervous system
same,Therapeutic index (TI),Plasmodium berghei,1.7
same,Time for which concentration in red cells is maintained,human erythrocytes,at least one hour
same,Concentration combined with erythrocytes (% initial concentration),human erythrocytes; 5 min,17.7 (1.2) %
same,Concentration combined with erythrocytes (% initial concentration),"human erythrocytes; 5 min, listed as PQ",18%
same,Concentration combined with erythrocytes (% initial concentration),human erythrocytes; 10 min,18.0 (3.4) %
same,Concentration combined with erythrocytes (% initial concentration),human erythrocytes; 60 min,18.8 (0.2) %
same,Accumulation in erythrocytes,human erythrocytes; not told,taken up rapidly by erythrocytes
"COc1cc(NC(C)CCCNC(=O)[C@@H]2CCC(=O)N2)c2ncccc2c1 (stereo partly drawn) [pGLU-PQ, N-(α-L-pyroglutamyl)primaquine]",Stability at room temp. and in the air,[1],unstable
same,Stability at room temp. under inert atmosphere,[1],stable
same,remaining at 1 h,[2]; [5],100%
same,metabolised at 1 h,[2]; [6],0%
same,remaining at 2 h,[2]; [7],101%
same,metabolised at 2 h,[2]; [8],0%
same,remaining at 3 h,[2]; [9],105%
same,metabolised at 3 h,[2]; [10],0%
same,remaining at 6 h,[2]; [11],103%
same,metabolised at 6 h,[2]; [12],0%
same,remaining at 24 h,[2]; [13],107%
same,metabolised at 24 h,[2]; [14],0%
same,remaining at 48 h,"[2]; bovine, fetal calf serum 95%, 37° C., 48 h, read-out: Relative concentration of compound (% of initial concentration)",87%
same,metabolised at 48 h,"[2]; bovine, fetal calf serum 95%, 37° C., 48 h, read-out: Relative concentration of primaquine (PQ) from derivative",0%
same,Relative concentration of compound (% of initial concentration),[2]; [15],100%
same,Relative concentration of primaquine (PQ) from derivative,[2]; [15],0%
same,Stability in the presence of serum,[2]; 37° C.,undergoes no modification
same,Onset of gradual decrease in relative concentration,lysosomal enzymes,> 6 h
same,Relative concentration of primaquine (PQ) from derivative,lysosomal enzymes,1%
same,Relative concentration of compound (% of initial concentration),lysosomal enzymes,99%
same,metabolised at 1 h,[3]; [16],0%
same,metabolised at 2 h,[3]; [16],0%
same,metabolised at 3 h,[3]; [16],0%
same,metabolised at 6 h,[3]; [16],0%
same,metabolised at 24 h,[3]; [16],0%
same,metabolised at 48 h,"[3]; liver lysosomal enzyme fraction, pH 4.5, 48 h, read-out: Relative concentration of primaquine (PQ) from derivative",0%
same,remaining at 1 h,[3]; [17],94%
same,remaining at 2 h,[3]; [17],97%
same,remaining at 3 h,[3]; [17],97%
same,remaining at 6 h,[3]; [17],96%
same,remaining at 24 h,[3]; [17],76%
same,remaining at 48 h,"[3]; liver lysosomal enzymes, pH 4.5, 37° C., 48 h, read-out: Relative concentration of compound (% of initial concentration)",47%
same,"Therapeutic index, fold higher than that of PQ",Plasmodium berghei,9 -fold
same,Time to maximum level in erythrocytes,human erythrocytes; not told,60 min
